Source: patent publication US20240271226A1, “METHODS OF PATHOGEN IDENTIFICATION AND ANTIMICROBIAL SUSCEPTIBILITY TESTING” (priority 2020, published 2024)
Several values for one entry are separate records, joined by “and”; a condition that tells them apart may be missing. Equal entries are not always repeated. {FAM-O} = FAM dye attached through an O linker at the PNA N-terminus; {IABk} = Iowa Black quencher

Legend:
[1] = test system: multi-drug resistant strain of E. coli (ATCC BAA 2471); settings: cited from earlier work
uropathogenic E. coli = settings: Baltimore, USA; cited from earlier work
[2] = test system: E. coli ATCC 25922 16S rRNA; assay: Bulk PNA probe hybridization assay in urine, LIF detection; type: binding; settings: ~10^9 CFU/mL E. coli ATCC 25922 spiked in urine; 2 min 95° C. lysis, 30 min 60° C. hybridization
Description: (§1) PNA probes were designed to target specific regions in the 16S rRNA for organisms belonging to the Enterobacterales (EB) order, the E. coli and P. mirabilis species (EC and PM), and the eubacterial kingdom (UNI), based on previous work (52, 72) (Table 1). The EB, EC, and PM probes were labeled with a FAM fluorophore, whereas the universal probe was labeled with an Alexa546 fluorophore. For each PNA probe, a short complementary DNA quencher was designed labeled with an Iowa Black® dark quencher. All probes were synthesized by PNA Bio (Newbury Park, CA), and all DNA quencher strands were synthesized by Integrated DNA Technologies (San Diego, CA). Probes and quenchers were stored in a custom hybridization buffer consisting of 50 mM NaCl, 25 mM Tris-HCl pH 8.0, and 0.5% polyvinylpyrrolidone (PVP) at −20° C. PVP is included to reduce the likelihood of probes being adsorbed to or retained by the walls of the PDMS devices. Prior to each experiment, individual aliquots of PNA probes were first thawed at 60° C. for 10 min to ensure full dissolution of the PNA stock into the hybridization buffer. For both bulk-based and droplet experiments, 200 nM PNA probes were mixed with 600 nM of the corresponding quencher in the custom hybridization buffer, and this solution was either mixed in bulk or co-encapsulated into droplets at a 1:1 ratio along with bacteria-containing urine and/or MH suspensions. An appropriate dosage of antibiotics was included in this mixture if required for the experiment.
(§2) We first verified that the probes can specifically detect target bacteria spiked into urine. […] We spiked ˜10^9 CFU/mL (equivalent to 1 cell in a ˜1 pL droplet) of standard reference strains of E. coli ATCC 25922, P. mirabilis ATCC 12453, K. pneumoniae ATCC BAA 1705, and P. aeruginosa ATCC 27853 into a mixture of culture-negative (i.e., blank) urine samples and hybridization buffer with each PNA probe. Each sample was subjected to 2 min of thermal lysis at 95° C. and 30 min of hybridization at 60° C., and then detected at room temperature within a 10 μm-wide microfluidic detection channel by our 2-color LIF detector (FIG. 6).

[3] = Tm of designed PNA probes; type: physicochemical
Description: as §1, with “An appropriate dosage of antibiotics was included in this mixture if required for the experiment.” left out

[4] = test system: K. pneumoniae ATCC BAA 1705 16S rRNA; assay: Bulk PNA probe hybridization assay in urine, LIF detection; type: binding; settings: ~10^9 CFU/mL K. pneumoniae ATCC BAA 1705 spiked in urine; 2 min 95° C. lysis, 30 min 60° C. hybridization
Description: as §1, §2

[5] = test system: P. aeruginosa ATCC 27853 16S rRNA; assay: as above; type: binding; settings: ~10^9 CFU/mL P. aeruginosa ATCC 27853 spiked in urine; 2 min 95° C. lysis, 30 min 60° C. hybridization
Description: as §1, §2

[6] = test system: P. mirabilis ATCC 12453 16S rRNA; assay: as above; type: binding; settings: ~10^9 CFU/mL P. mirabilis ATCC 12453 spiked in urine; 2 min 95° C. lysis, 30 min 60° C. hybridization
Description: as §1, §2

[7] = test system: multi-drug resistant E. coli; assay: In-droplet single-cell 16S rRNA AST in spiked urine; type: cell-based; settings: gentamicin 8 μg/mL, urine with 2×MH broth, 37° C. for 30, 15, 10 or 5 min
Protocol: We next sought to minimize the culture/antibiotic exposure time for assessing antimicrobial susceptibility in urine. We separately digitized reference and multi-drug resistant E. coli-spiked urine samples, each along with 2×MH broth and EC PNA probes in droplets without and with gentamicin (bactericidal concentration of 8 μg/mL). Each gentamicin-free and gentamicin-dosed droplet group pair was then incubated at 37° C. for 30, 15, 10, or 5 min, followed by lysis, hybridization, and LIF detection (FIG. 13B). Longer bacterial culture result in higher production of 16S rRNA in gentamicin-free bacterial cells and therefore increased positive droplet frequencies. […] The effect of gentamicin on the two strains can be differentiated after as short as 10 min culture/antibiotic exposure, the minimum time at which there is no overlap between the error envelopes around the normalized positive droplet populations. […] As a result, we achieve assessment of antimicrobial susceptibility faster than the average replication time of an E. coli cell, a feat that ultimately paves the way for integrating molecular ID and AST to well under 30 min.
Finally, we investigated the utility of our single-cell 16S rRNA-based phenomolecular AST approach against 3 clinically important antibiotics. […]. […]

reference E. coli = assay: as above; type: cell-based; settings: gentamicin 8 μg/mL, urine with 2×MH broth, 37° C. for 30, 15, 10 or 5 min
E. coli cells = assay: In-droplet single-cell 16S rRNA AST in MH broth; type: cell-based
Description: A custom MATLAB program was developed for analyzing the raw fluorescence intensity data acquired from the APD. From the fluorescence intensity time trace of each experimental run, the program looks for individual droplets by quantifying peak widths and peak heights. Once droplet position and fluorescence intensity were identified for all droplets in a sample, the intensities were plotted as a histogram with ˜150 bins. Resulting histograms typically follow a bimodal distribution, and in order to classify the respective subpopulations, the first droplet histogram peak (“empty droplets”) were fitted with a Gaussian curve. Based on the fitted curve, the mean intensity of the empty droplet population as well as the standard deviation were calculated. All droplets whose intensities were 5 standard deviations above the empty droplet mean intensity were counted as bacteria-containing “positive droplets.” Signal to background ratios were calculated by dividing the mean intensity of positive droplets by the mean intensity of empty droplets.
We first co-encapsulated the EC probe and E. coli cells, which were spiked into Mueller-Hinton broth (MH), into picoliter droplets. […]

[8] = test system: multi-drug resistant E. coli ATCC BAA 2471; assay: Bulk pheno-molecular AST by 16S rRNA hybridization detection; type: cell-based; settings: gentamicin 8 μg/mL, 20 μL bulk, 0-120 min at 37° C., EC PNA probe
Description: (§3) We note that we can achieve preliminary pheno-molecular AST by directly detecting PNA-to-16S rRNA hybridization in the bulk format via the LIF detector, though only after relatively lengthy antibiotic exposure. […] We then determined the relative fluorescence intensity—the ratio between the fluorescence intensities of the gentamicin-dosed cells and the gentamicin-free cells—for both strains for each culture duration.

[9] = test system: reference E. coli ATCC 25922; assay: as above; type: cell-based
Description: as §3

Compound: CC1(C)S[C@@H]2[C@H](NC(=O)[C@H](N)c3ccccc3)C(=O)N2[C@H]1C(=O)O [ampicillin]
- reported resistance of the strain [1]: resistant

Compound: O=C(O)c1cn(C2CC2)c2cc(N3CCNCC3)c(F)cc2c1=O [ciprofloxacin]
- reported resistance of the strain [1]: resistant
- resistance rate (uropathogenic E. coli): ≤ 31%

Compound: EC probe: FAM-labeled PNA probe FAM-O-TCAATGAGCAAAGGT-KK targeting E. coli 16S rRNA, with Iowa Black DNA quencher IABk-AGTTACTCGT (chain 1: all peptide nucleic acid (PNA), 5' {FAM-O}; chain 2: DNA, 5' {IABk}, backbone and methylation of C not given here; PNA carries two C-terminal lysines)
- probe fluorescence signal in the presence of target bacteria over blank urine background [2]: significantly higher signal
- Tm [3]: 76.3 °C

Compound: UNI probe: Alexa546-labeled pan-bacteria PNA probe GCTGCCTCCCGTAGGA-K-Alexa546 targeting eubacterial 16S rRNA, with DNA quencher GGAGGGCATCCT-IABk (PNA, lysine-Alexa546, DNA quencher strand, chemistry not fully specified)
- probe fluorescence signal in the presence of target bacteria over blank urine background [4]: successfully detects
- probe fluorescence signal in the presence of target bacteria over blank urine background [5]: successfully detects
- probe fluorescence signal in the presence of target bacteria over blank urine background [6]: successfully detects
- probe fluorescence signal in the presence of target bacteria over blank urine background [2]: successfully detects
- Tm [3]: 80.5 °C

Compound: gentamicin
- reported resistance of the strain [1]: resistant
- normalized positive droplet population [7]: comparatively higher and relatively unchanging normalized positive droplet population
- normalized positive droplet population (reference E. coli): decreasing normalized positive droplet population over increasing culture times
- normalized positive droplet population versus antibiotic concentration (E. coli cells; E. coli in MH broth, droplets): decreases as the concentration of gentamicin increases
- frequency of positive droplets (E. coli cells; gentamicin 128 μg/mL, 30 min culture/antibiotic exposure, MH broth, 4×10^7 CFU/mL E. coli, no-antibiotic control 7.70%): 3.12%
- relative fluorescence intensity (gentamicin-dosed cells / gentamicin-free cells) [8]: ~1
- culture/antibiotic exposure needed to see or differentiate the effect on susceptible vs resistant E. coli ([9]; bulk format, vs multi-drug resistant E. coli BAA 2471): > 90 min and 90 min
- relative fluorescence intensity (gentamicin-dosed cells / gentamicin-free cells) ([9]; gentamicin 8 μg/mL, 20 μL bulk, 0-120 min at 37° C., EC PNA probe): significantly lower relative fluorescence intensities
